Data on one molecule can be found in patent US20240408082A1, “METHODS FOR TREATING CANCERS AND TUMORS” (BEYONDSPRING PHARMACEUTICALS, INC., priority 2021, published 2024).

One assay deals with small cell lung cancer. The experiment in a line: 3D clonogenic assay, Example 2, small cell lung cancer. It is filed as cell-based. Particulars: n=7 models. As to the method:
(§1) The present study investigated plinabulin for anticancer activity ex vivo in 68 out of 71 originally planned patient-derived xenograft (PDX) models representing major cancer types. Experiments were performed using a 3D clonogenic assay in a 96-well format with colony count based on image analysis as a read-out. By using this assay, the investigational compound was assessed for the ability to inhibit anchorage independent growth and ex vivo colony formation of tumor cells in semi-solid medium.
(§2) A master stock solution of plinabulin was prepared by dissolving the compound in DMSO at a concentration of 9.9 mM. Working stock solutions were prepared by diluting the master stock solution with DMSO to a concentration of 0.99 mM (330-fold the highest test concentration). Small aliquots of the master and working stock were stored at −20° C. […]
(§3) Plinabulin was investigated in 68 PDX models representing a number of cancer types. […] The percentage of viable cells was determined in a Neubauer-hemocytometer using trypan blue exclusion. […]
(§4) The clonogenic assay was carried out in a 96 well plate format using ultra low attachment plates. […] Cultures were incubated at 37° C. and 7.5% CO2 in a humidified atmosphere 13 days in total and monitored closely for colony growth using an inverted microscope. […]

Assay [1] concerns gastric cancer models (Caucasian). The experiment in a line: 3D clonogenic assay, Example 2, gastric cancer models (Caucasian). The note with it: n=3 models. It is filed as cell-based. As to the method:
as §1, §2, §3, §4

For orientation: IC50 means the concentration at which inhibition is half-maximal. Take `CC(C)(C)c1[nH]cnc1/C=c1\[nH]c(=O)/c(=C/c2ccccc2)[nH]c1=O` [plinabulin, (3Z,6Z)-3-Benzylidene-6-{[5-(2-methyl-2-propanyl)-1H-imidazol-4-yl]methylene}-2,5-piperazinedione]: the “geom. mean abs. IC70” value in the assay on small cell lung cancer is 385 nM. In addition, the concentration for half-maximal inhibition (IC50) with small cell lung cancer (read-out: geom. mean abs. IC50) stood at 74 nM. Further, the “geometric mean absolute IC70” value in assay [1] is greater than 3000 nM.
